Source: US7728012B2, “Carboxamide compounds and their use as calpain inhibitors” (Abbott GmbH & Co. KG, priority 2006, dated 2010)

What was measured:
Assay type in all cases: biochemical
[1] = target: T1, recombinant human cathepsin S (Homo sapiens, UniProt P25774); assay: Cathepsin S kinetic fluorescence enzyme inhibition assay; settings: selectivity ratio versus calpain I
T1 construct: purchased Calbiochem 219343; host or cells: E. coli
Outline: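 Cathepsin B (0.25 nM, human liver) with 100 μM Z-Phe-Arg-AMC; L (1 nM, human liver) with 2 μM Z-Phe-Arg-AMC; S (0.5 nM, recombinant) with 20 μM Z-Val-Val-Arg-AMC. pH 6.0 MES buffer, 2.5 mM L-cysteine, room temperature. Kinetic fluorescence (ex 390/em 460 nm); apparent Ki from IC50 by Cheng-Prusoff.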

[2] = target: T2, cathepsin B isolated from human liver (Homo sapiens, UniProt P07858); assay: Cathepsin B kinetic fluorescence enzyme inhibition assay; settings: selectivity ratio versus calpain I
T2 construct: cathepsin B—isolated from human liver; purchased Calbiochem 219362; host or cells: human liver (tissue isolate)
Description: (§1) The following solutions and buffers were employed: • HBS (for 40 ml): 800 μl M HEPES; 2.16 ml 100 mM KCl; 4.8 ml 1M NaCl; 3.59 ml 5% glucose; 60 μl μM MgSO4; 400 μl 100 mM Na pyruvate, 28.19 ml water; pH 7.2-7.5. • lysis buffer (for 20 ml): 400 μl M Tris pH 8.2; 2.74 ml 1M NaCl; 520 μl 0.5M EDTA; 2 ml 10% triton X-100; 0.8 ml (=1:25) CompletePlus (1 tablet/2 ml H2O); 200 μl 100 mM Pefabloc; 13.34 ml water, pH 8.2. • TBST (10×) (for 1 l): 100 mM Tris (12.1 g); 1.5M NaCl (87 g); 1% Tween 20 (10 g), adjusted to pH 8. I Enzyme Inhibition In Vitro: • Testing for blockade of the corresponding enzymic activities was carried out by means of kinetic fluorescence assays (excitation 390 nm, emission 460 nm). • Apparent Ki values were calculated from the experimentally determined IC50 values by the Cheng-Prussoff relation assuming a reversible competitive enzyme inhibition. The Km values of the substrates used under the assay conditions indicated above were: 90 μM (Z-Phe-Arg-AMC, cathepsin B), 10 μM (Z-Gly-Pro-Arg-AMC, cathepsin K), 2 μM (Z-Phe-Arg-AMC, cathepsin L), and 30 μM (Z-Val-Val-Arg-AMC, cathepsin S). • The indicated Ki values are averages of the inhibition constants calculated on the basis of 2 to 4 independent dose-effect plots.
(§2) The following assays were used: • 1. Calpain I: • 20 nM calpain-I—isolated from human erythrocytes (Calbiochem #208713), 100 μM Suc-Leu-Tyr-AMC (Bachem #1-1355) as substrate in buffer with 62 mM imidazole, 0.3 mM CaCl2, 0.10% CHAPS, 0.05% BSA, 1 mM DTT at pH 7.3 and room temperature. • 2. Cathepsin B: • 0.25 nM cathepsin B—isolated from human liver (Calbiochem #219362), 100 μM Z-Phe-Arg-AMC (Bachem #I-1160) as substrate 50 mM MES, 2 mM EDTA, 0.05% Brij 35, 2.5 mM L-cysteine, pH 6.0, room temperature. • 3. Cathepsin K: • 3 nM cathepsin K—activated from recombinant human procathepsin K from E. coli (Calbiochem #342001), 10 μM Z-Gly-Pro-Arg-AMC (Biomol #P-142) as substrate in 50 mM MES, 2 mM EDTA, 0.05% Brij 35, 2.5 mM L-cysteine, pH 6.0, room temperature. • 4. Cathepsin L: • 1 nM cathepsin L—isolated from human liver (Calbiochem #219402), 2 μM Z-Phe-Arg-AMC (Bachem #1-1160) as substrate in 50 mM MES, 2 mM EDTA, 0.05% Brij 35, 2.5 mM L-cysteine, pH 6.0, room temperature. • 5. Cathepsin S: • 0.5 nM recombinant human cathepsin S from E. coli (Calbiochem #219343), 20 μM Z-Val-Val-Arg-AMC (Bachem #1-1540) as substrate in 50 mM MES, 2 mM EDTA, 0.05% Brij 35, 2.5 mM L-cysteine, pH 6.0, room temperature. • The results of the in vitro determination are indicated in Table 1. The following abbreviations are used in Table 1: • The “Calpain activity” column, ++ stands for a calpain Ki (Ki(calpain)) of ≦40 nM and + means: 40 nM<Ki(Calpain)≦100 nM. • The “Sel. cat. B” column indicates the Ki(cathepsin B)/Ki(calpain) ratio. In this connection, ++ means a Ki(cathepsin B)/Ki(calpain) ratio of ≧30 and + means 10≦Ki(cathepsin B)/Ki(calpain)<30. • The “Sel. cat. K” column indicates the Ki(cathepsin K)/Ki(calpain) ratio. In this connection, ++ means a Ki(cathepsin K)/Ki(calpain) ratio of ≧30 and + means 10≦Ki(cathepsin K)/Ki(calpain)<30. • The “Sel. cat. L” column indicates the Ki(cathepsin L)/Ki(calpain) ratio. In this connection, ++ means a Ki(cathepsin L)/Ki(calpain) ratio of ≧50 and + means 30≦Ki(cathepsin L)/Ki(calpain)<50. • The “Sel. cat. S” column indicates the Ki(cathepsin S)/Ki(calpain) ratio. In this connection, ++ means a Ki(cathepsin S)/Ki(calpain) ratio of ≧100 and + means 50≦Ki(cathepsin S)/Ki(calpain)<100.

[3] = target: T3, calpain-I isolated from human erythrocytes (Homo sapiens, UniProt P07384); assay: Calpain I kinetic fluorescence enzyme inhibition assay; settings: apparent Ki from IC50 by Cheng-Prussoff; average of 2 to 4 dose-effect plots
T3 construct: calpain-I—isolated from human erythrocytes; purchased Calbiochem 208713; host or cells: human erythrocytes (tissue isolate)
T3 sequence (P07384 1-714): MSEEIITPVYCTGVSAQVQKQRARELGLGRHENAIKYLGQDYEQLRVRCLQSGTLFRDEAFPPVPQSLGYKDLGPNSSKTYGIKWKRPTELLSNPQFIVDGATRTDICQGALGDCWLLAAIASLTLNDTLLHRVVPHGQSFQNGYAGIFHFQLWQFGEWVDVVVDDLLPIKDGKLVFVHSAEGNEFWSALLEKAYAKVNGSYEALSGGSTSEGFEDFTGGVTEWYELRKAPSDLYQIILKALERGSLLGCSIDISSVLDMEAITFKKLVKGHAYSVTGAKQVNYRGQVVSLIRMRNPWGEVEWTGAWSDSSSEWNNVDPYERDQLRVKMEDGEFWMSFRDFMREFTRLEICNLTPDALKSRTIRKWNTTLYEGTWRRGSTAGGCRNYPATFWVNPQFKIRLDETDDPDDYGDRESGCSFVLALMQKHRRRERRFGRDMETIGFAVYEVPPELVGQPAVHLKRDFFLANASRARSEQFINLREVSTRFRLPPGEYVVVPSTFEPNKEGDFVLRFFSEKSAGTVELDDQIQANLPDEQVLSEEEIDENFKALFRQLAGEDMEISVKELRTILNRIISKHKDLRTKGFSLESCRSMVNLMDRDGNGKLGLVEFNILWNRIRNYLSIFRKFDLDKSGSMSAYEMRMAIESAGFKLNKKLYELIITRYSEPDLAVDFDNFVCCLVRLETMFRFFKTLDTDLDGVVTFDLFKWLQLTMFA
T3 sequence (P04632 1-268 partner): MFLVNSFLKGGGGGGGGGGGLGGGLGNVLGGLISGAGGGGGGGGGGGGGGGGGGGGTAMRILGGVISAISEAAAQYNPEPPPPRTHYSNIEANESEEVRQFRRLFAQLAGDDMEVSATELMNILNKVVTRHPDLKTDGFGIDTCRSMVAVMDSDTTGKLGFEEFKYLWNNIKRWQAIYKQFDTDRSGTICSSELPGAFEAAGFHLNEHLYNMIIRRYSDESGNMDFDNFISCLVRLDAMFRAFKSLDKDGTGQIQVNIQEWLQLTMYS

[4] = target: T4, cathepsin L isolated from human liver (Homo sapiens, UniProt P07711); assay: Cathepsin L kinetic fluorescence enzyme inhibition assay; settings: selectivity ratio versus calpain I
T4 construct: cathepsin L—isolated from human liver; purchased Calbiochem 219402; host or cells: human liver (tissue isolate)
T4 sequence (P07711 114-333): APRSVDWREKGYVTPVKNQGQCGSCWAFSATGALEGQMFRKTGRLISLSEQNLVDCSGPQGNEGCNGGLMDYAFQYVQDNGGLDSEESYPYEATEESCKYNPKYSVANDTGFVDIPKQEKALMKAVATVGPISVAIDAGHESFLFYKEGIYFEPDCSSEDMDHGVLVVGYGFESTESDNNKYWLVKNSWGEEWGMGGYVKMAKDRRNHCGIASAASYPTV
Description: as §1, §2

T1 sequence (P25774 115-331): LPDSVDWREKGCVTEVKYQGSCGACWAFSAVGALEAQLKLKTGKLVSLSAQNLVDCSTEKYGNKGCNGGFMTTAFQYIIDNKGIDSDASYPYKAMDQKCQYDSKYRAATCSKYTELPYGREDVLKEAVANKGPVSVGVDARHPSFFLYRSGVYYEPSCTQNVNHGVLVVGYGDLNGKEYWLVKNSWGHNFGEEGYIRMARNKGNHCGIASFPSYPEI

Compound	Sel cat. S (Ki(cathepsin S)/Ki(calpain) ratio) [1]	Sel cat. B (Ki(cathepsin B)/Ki(calpain) ratio) [2]	Ki [3] [nM]	Sel cat. L (Ki(cathepsin L)/Ki(calpain) ratio) [4]
CCCCC(NC(=O)c1cccnc1-n1ccc(-c2ccc(N3CCOCC3)cc2)n1)C(=O)C(N)=O (stereo not shown) [Example 33, N-{1-[Amino(oxo)acetyl]pentyl}-2-[3-(4-morpholin-4-ylphenyl)-1H-pyrazol-1-yl]nicotinamide]	+ (50≦Ki(cathepsin S)/Ki(calpain)<100)	+ (10≦Ki(cathepsin B)/Ki(calpain)<30)	≤ 40	–
Cc1cn(-c2ncccc2C(=O)NC(Cc2ccccc2)C(=O)C(N)=O)nc1-c1ccccc1 (stereo not shown) [Example 84, N-(3-Amino-1-benzyl-2,3-dioxopropyl)-2-(4-methyl-3-phenyl-1H-pyrazol-1-yl)nicotinamide]	++ (Ki(cathepsin S)/Ki(calpain) ratio of ≧100)	+ (10≦Ki(cathepsin B)/Ki(calpain)<30)	≤ 40	++ (Ki(cathepsin L)/Ki(calpain) ratio of ≧50)
NC(=O)C(=O)C(Cc1ccccc1)NC(=O)c1cccnc1-n1ccc(-c2cccc3cnccc23)n1 (stereo not shown) [Example 156, N-[3-Amino-2,3-dioxo-1-(phenylmethyl)propyl]-2-(3-isoquinolin-5-yl-1H-pyrazol-1-yl)pyridine-3-carboxamide]	++ (Ki(cathepsin S)/Ki(calpain) ratio of ≧100)	+ (10≦Ki(cathepsin B)/Ki(calpain)<30)	–	+ (30≦Ki(cathepsin L)/Ki(calpain)<50)
CC(C)c1ccc2c(c1)-c1nn(-c3ncccc3C(=O)NC(Cc3ccccc3)C(=O)C(N)=O)cc1CO2 (stereo not shown) [Example 144, N-[3-Amino-2,3-dioxo-1-(phenylmethyl)propyl]-2-[8-(1-methylethyl)chromeno[4,3-c]pyrazol-2(4H)-yl]pyridine-3-carboxamide]	++ (Ki(cathepsin S)/Ki(calpain) ratio of ≧100)	+ (10≦Ki(cathepsin B)/Ki(calpain)<30)	≤ 40	++ (Ki(cathepsin L)/Ki(calpain) ratio of ≧50)
NC(=O)C(=O)C(Cc1cccs1)NC(=O)c1cccnc1-n1ccc(-c2ccccc2)n1 (stereo not shown) [Example 40, N-[3-Amino-2,3-dioxo-1-(2-thienylmethyl)propyl]-2-(3-phenyl-1H-pyrazol-1-yl)pyridine-3-carboxamide]	++ (Ki(cathepsin S)/Ki(calpain) ratio of ≧100)	+ (10≦Ki(cathepsin B)/Ki(calpain)<30)	≤ 40	++ (Ki(cathepsin L)/Ki(calpain) ratio of ≧50)
NC(=O)C(=O)C(Cc1ccccc1)NC(=O)c1cccnc1-n1ccc(-c2ccc(N3CCCCC3)cc2)n1 (stereo not shown) [Example 64, N-(3-Amino-1-benzyl-2,3-dioxopropyl)-2-[3-(4-piperidin-1-ylphenyl)-1H-pyrazol-1-yl]nicotinamide]	++ (Ki(cathepsin S)/Ki(calpain) ratio of ≧100)	+ (10≦Ki(cathepsin B)/Ki(calpain)<30)	≤ 40	–
NC(=O)C(=O)C(Cc1ccc(Br)cc1)NC(=O)c1cccnc1-n1ccc(-c2ccccc2)n1 (stereo not shown) [Example 122, N-{3-Amino-1-[(4-bromophenyl)methyl]-2,3-dioxopropyl}-2-(3-phenyl-1H-pyrazol-1-yl)pyridine-3-carboxamide]	++ (Ki(cathepsin S)/Ki(calpain) ratio of ≧100)	++ (Ki(cathepsin B)/Ki(calpain) ratio of ≧30)	≤ 40	++ (Ki(cathepsin L)/Ki(calpain) ratio of ≧50)
N-{3-Amino-1-[(4-fluorophenyl)methyl]-2,3-dioxopropyl}-2-[3-(2,3-dichlorophenyl)-1H-pyrazol-1-yl]pyridine-3-carboxamide [Example 161]	++ (Ki(cathepsin S)/Ki(calpain) ratio of ≧100)	+ (10≦Ki(cathepsin B)/Ki(calpain)<30)	–	+ (30≦Ki(cathepsin L)/Ki(calpain)<50)
